From patent US9890147B2 (BAYER PHARMA AKTIENGESELLSCHAFT, priority 2012, dated 2018)

Key:
BRD4 (BD1) = biological target: T1, BRD4 (BD1) (Homo sapiens, UniProt O60885); assay: Binding assay BRD4/acetylated peptide H4 (TR-FRET protein-protein interaction assay)
T1 construct: with relatively long constructs also being possible, preferably amino acids 44-168; made in house; host or cells: E. coli
In short: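 His6-BRD4 BD1 (aa 67-152, E. coli), usually 10 nM, with biotinylated tetra-acetylated H4 peptide in HEPES pH 7.5 buffer; 11 compound concentrations 0.1 nM–20 μM in duplicate, 10 min preincubation, 1 h at 22 °C then ≥3 h at 4 °C. TR-FRET 665/620 ratio; IC50 by 4-parameter fit.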

MOLM-13 cells = assay: Cell proliferation assay (alamarBlue), MOLM-13; type: cell-based; conditions: Homo sapiens, 96 hours incubation, inhibition of cell proliferation
In short: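 Cells in RPMI1640/10% FCS read by alamarBlue fluorescence (ex 530, em 590 nm) after overnight 37 °C incubation, then treated at 1E-5 to 1E-8 M for 96 h. Pre-treatment values subtracted from endpoint values and compared with buffer-only wells; IC50 is 50% proliferation inhibition.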

| Compound | IC50 (BRD4 (BD1)) [µM] | IC50 (MOLM-13 cells) [µM] |
| --- | --- | --- |
| CNC(=O)N1N=C(c2ccc(-c3cc(C)cc(F)c3)cc2)c2cc(OC)c(OC)cc2CC1C (racemic) [Example 120, (±)-1-(3′-fluoro-5′-methylbiphenyl-4-yl)-7,8-dimethoxy-N,4-dimethyl-4,5-dihydro-3H-2,3-benzodiazepine-3-carboxamide] | 0.19 | 0.8 |
| CNC(=O)N1N=C(c2ccc(-c3ccc([S+](C)[O-])cc3)cc2)c2cc(OC)c(OC)cc2CC1C (racemic) [Example 67, (±)-7,8-dimethoxy-N,4-dimethyl-1-[4′-(methylsulphinyl)biphenyl-4-yl]-4,5-dihydro-3H-2,3-benzodiazepine-3-carboxamide] | 0.04 | 0.47 |
| CNC(=O)N1N=C(c2ccc(-c3ccncc3F)cc2)c2cc(OC)c(OC)cc2CC1C (racemic) [Example 84, (±)-1-[4-(3-fluoropyridin-4-yl)phenyl]-7,8-dimethoxy-N,4-dimethyl-4,5-dihydro-3H-2,3-benzodiazepine-3-carboxamide] | 0.06 | 0.34 |
| CNC(=O)N1N=C(c2ccc(N3CCCCC3=O)cc2)c2cc(OC)c(OC)cc2CC1C (racemic) [Example 35, (±)-7,8-dimethoxy-N,4-dimethyl-1-[4-(2-oxopiperidin-1-yl)phenyl]-4,5-dihydro-3H-2,3-benzodiazepine-3-carboxamide] | 0.22 | 1.47 |
| CNC(=O)N1N=C(c2ccc(N3CCN(C(C)=O)CC3)cc2)c2cc(OC)c(OC)cc2C[C@@H]1C [Example 132.2, (4S)-1-[4-(4-acetylpiperazin-1-yl)phenyl]-7,8-dimethoxy-N,4-dimethyl-4,5-dihydro-3H-2,3-benzodiazepine-3-carboxamide] | 0.02 | 0.23 |
| CNC(=O)N1N=C(c2ccc(-c3ccccc3S(C)(=O)=O)cc2)c2cc(OC)c(OC)cc2CC1C (racemic) [Example 69, (±)-7,8-dimethoxy-N,4-dimethyl-1-[2′-(methylsulphonyl)biphenyl-4-yl]-4,5-dihydro-3H-2,3-benzodiazepine-3-carboxamide] | 0.13 | 1.21 |
| CNC(=O)N1N=C(c2ccc(-c3ccccc3CO)cc2)c2cc(OC)c(OC)cc2CC1C (racemic) [Example 112, (±)-1-[2′-(hydroxymethyl)biphenyl-4-yl]-7,8-dimethoxy-N,4-dimethyl-4,5-dihydro-3H-2,3-benzodiazepine-3-carboxamide] | 0.08 | 0.63 |
| CNC(=O)N1N=C(c2cccc(-c3c(C)nn(C)c3C)c2)c2cc(OC)c(OC)cc2CC1C (racemic) [Example 53, (±)-7,8-dimethoxy-N,4-dimethyl-1-[3-(1,3,5-trimethyl-1H-pyrazol-4-yl)phenyl]-4,5-dihydro-3H-2,3-benzodiazepine-3-carboxamide] | 0.04 | 0.35 |
| CNC(=O)N1N=C(c2ccc(-c3cccn3C)cc2)c2cc(OC)c(OC)cc2CC1C (racemic) [Example 116, (±)-7,8-dimethoxy-N,4-dimethyl-1-[4-(1-methyl-1H-pyrrol-2-yl)phenyl]-4,5-dihydro-3H-2,3-benzodiazepine-3-carboxamide] | 0.07 | 0.49 |
| CNC(=O)N1N=C(c2ccc(-c3ccccc3F)cc2)c2cc(OC)c(OC)cc2CC1C (racemic) [Example 93, (±)-1-(2′-fluorobiphenyl-4-yl)-7,8-dimethoxy-N,4-dimethyl-4,5-dihydro-3H-2,3-benzodiazepine-3-carboxamide] | 0.12 | 0.46 |
| CNC(=O)N1N=C(c2ccc(-c3ccnn3C)cc2)c2cc(OC)c(OC)cc2CC1C (racemic) [Example 101, (±)-7,8-dimethoxy-N,4-dimethyl-1-[4-(1-methyl-1H-pyrazol-5-yl)phenyl]-4,5-dihydro-3H-2,3-benzodiazepine-3-carboxamide] | 0.06 | 0.65 |
| CNC(=O)N1N=C(c2ccc(N3CC(F)C3)cc2)c2cc(OC)c(OC)cc2C[C@H]1C [Example 129.1, (4R)-1-[4-(3-fluoroazetidin-1-yl)phenyl]-7,8-dimethoxy-N,4-dimethyl-4,5-dihydro-3H-2,3-benzodiazepine-3-carboxamide] | 6.62 | > 10 |
| CNC(=O)N1N=C(c2ccc(-c3ccc(S(=O)(=O)NC)cc3)cc2)c2cc(OC)c(OC)cc2CC1C (racemic) [Example 115, (±)-7,8-dimethoxy-N,4-dimethyl-1-[4′-(methylsulphamoyl)biphenyl-4-yl]-4,5-dihydro-3H-2,3-benzodiazepine-3-carboxamide] | 0.05 | 0.46 |
| CNC(=O)N1N=C(c2ccc(-c3ccc(O)nc3)cc2)c2cc(OC)c(OC)cc2CC1C (racemic) [Example 49, (±)-1-[4-(6-hydroxypyridin-3-yl)phenyl]-7,8-dimethoxy-N,4-dimethyl-4,5-dihydro-3H-2,3-benzodiazepine-3-carboxamide] | 0.04 | 0.42 |
| CNC(=O)N1N=C(c2ccc(-c3cccc(C(=O)N4CCOCC4)c3)cc2)c2cc(OC)c(OC)cc2CC1C (racemic) [Example 98, (±)-7,8-dimethoxy-N,4-dimethyl-1-[3′-(morpholin-4-ylcarbonyl)biphenyl-4-yl]-4,5-dihydro-3H-2,3-benzodiazepine-3-carboxamide] | 0.03 | 0.27 |

Next, values leading:

| IC50 (BRD4 (BD1)) [µM] | IC50 (MOLM-13 cells) [µM] | Compound |
| --- | --- | --- |
| 0.11 | 0.28 | CCOc1cc2c(cc1OCC)C(c1ccc(-c3c(C)noc3C)cc1)=NN(C(=O)NC)C(C)C2 (racemic) [Example 161, (±)-1-[4-(3,5-Dimethylisoxazol-4-yl)phenyl]-7,8-diethoxy-N,4-dimethyl-4,5-dihydro-3H-2,3-benzodiazepine-3-carboxamide] |
| 0.26 | 1.27 | CC[C@H]1Cc2cc(OC)c(OC)cc2C(c2ccc(N3CCN(S(C)(=O)=O)CC3)cc2)=NN1C(=O)NC [Example 203.1, (4S)-4-ethyl-7,8-dimethoxy-N-methyl-1-{4-[4-(methylsulphonyl)piperazin-1-yl]phenyl}-4,5-dihydro-3H-2,3-benzodiazepine-3-carboxamide] |
| 0.06 | 0.43 | CNC(=O)N1N=C(c2ccc(-c3c(C)noc3C)cc2)c2cc(C)ccc2CC1C (racemic) [Example 158, (±)-1-[4-(3,5-dimethylisoxazol-4-yl)phenyl]-N,4,8-trimethyl-4,5-dihydro-3H-2,3-benzodiazepine-3-carboxamide] |
| 0.52 | 1.03 | CNC(=O)N1N=C(c2ccc(Cl)cc2)c2cc(N3CCS(=O)(=O)CC3)c(OC(F)(F)F)cc2CC1C (racemic) [Example 216, (±)-1-(4-chlorophenyl)-8-(1,1-dioxidothiomorpholin-4-yl)-N,4-dimethyl-7-(trifluoromethoxy)-4,5-dihydro-3H-2,3-benzodiazepine-3-carboxamide] |
| 0.13 | 0.12 | CNC(=O)N1N=C(c2ccc(-c3c(C)noc3C)cc2)c2cc(Cl)c(OC)cc2C[C@@H]1C [Example 157.1, (4S)-8-chloro-1-[4-(3,5-dimethylisoxazol-4-yl)phenyl]-7-methoxy-N,4-dimethyl-4,5-dihydro-3H-2,3-benzodiazepine-3-carboxamide] |
| 0.07 | 0.52 | CNC(=O)N1N=C(c2ccc(-c3c(C)noc3C)cc2)c2cc(OC)c(C#N)cc2CC1C (racemic) [Example 170, (±)-7-Cyano-1-[4-(3,5-dimethylisoxazol-4-yl)phenyl]-8-methoxy-N,4-dimethyl-4,5-dihydro-3H-2,3-benzodiazepine-3-carboxamide] |
| 0.27 | 0.67 | CNC(=O)N1N=C(c2ccc(Cl)cc2)c2cc(OCCN3CCN(C)CC3)ccc2CC1C (racemic) [Example 166, (±)-1-(4-chlorophenyl)-N,4-dimethyl-8-[2-(4-methylpiperazin-1-yl)ethoxy]-4,5-dihydro-3H-2,3-benzodiazepine-3-carboxamide] |
| 0.1 | 0.21 | CNC(=O)N1N=C(c2ccc(-c3c(C)noc3C)cc2)c2cc(OC)c(OC(F)F)cc2C[C@@H]1C [Example 162.1, (4S)-7-(difluoromethoxy)-1-[4-(3,5-dimethylisoxazol-4-yl)phenyl]-8-methoxy-N,4-dimethyl-4,5-dihydro-3H-2,3-benzodiazepine-3-carboxamide] |
| 0.02 | 1.31 | CNC(=O)N1N=C(c2ccc(-n3nc(C(F)(F)F)cc3C)cc2)c2cc(OC)c(OC)cc2CC1C (racemic) [Example 151, (±)-7,8-dimethoxy-N,4-dimethyl-1-{4-[5-methyl-3-(trifluoromethyl)-1H-pyrazol-1-yl]phenyl}-4,5-dihydro-3H-2,3-benzodiazepine-3-carboxamide] |
| 0.5 | 0.18 | CCOc1cc2c(cc1OCC)C(c1ccc(N3CCN(C)CC3)cc1)=NN(C(=O)NC)C(C)C2 (racemic) [Example 200, (±)-7,8-Diethoxy-N,4-dimethyl-1-[4-(4-methylpiperazin-1-yl)phenyl]-4,5-dihydro-3H-2,3-benzodiazepine-3-carboxamide] |
| 0.26 | 0.4 | CNC(=O)N1N=C(c2ccc(-c3c(C)noc3C)cc2)c2cc(OC(F)F)c(OC(F)F)cc2CC1C (racemic) [Example 160, (±)-7,8-Bis(difluoromethoxy)-1-[4-(3,5-dimethylisoxazol-4-yl)phenyl]-N,4-dimethyl-4,5-dihydro-3H-2,3-benzodiazepine-3-carboxamide] |
| 0.04 | 0.38 | CNC(=O)N1N=C(c2ccc(-c3c(C)noc3C)cc2)c2cc(C(C)(C)C)ccc2CC1C (racemic) [Example 155, (±)-8-tert-Butyl-1-[4-(3,5-dimethylisoxazol-4-yl)phenyl]-N,4-dimethyl-4,5-dihydro-3H-2,3-benzodiazepine-3-carboxamide] |
